Test results taken from patent US20250268931A1, “TRANSCRIPTIONAL INHIBITOR FOR IMMUNE-RELATED GENE” (The University of Tokyo, priority 2022, published 2025).

Assays:
IFN-β = IFN-β concentration in culture supernatant of LPS-stimulated Raw264.7 cells (ELISA); type: cell-based; details: PIPA 1, 3 or 10 μM 24 h, then LPS 20 ng/mL 16 h
Description: Raw264.7 cells, a macrophage cell line, were seeded on a 96-well plate at a cell density of 2×10^4 cells/well, and were then culture for 8 hours for adhesion. Thereafter, IRF-PIPA was added to the cultured cells to final concentrations of 1, 3, or 10 μM. After completion of the culture for 24 hours, LPS was added to the cultured cells to a final concentration of 20 ng/mL, and the obtained mixture was then cultured for 16 hours, followed by the recovery of the supernatant. The supernatant was 2-fold diluted with 1% BSA-PBS, and the IFN-β concentration was then measured by ELISA.
Raw264.7 cells, a cell line, were purchased from RIKEN Cell Bank, and were then cultured using D-MEM (Nacalai Tesque) containing 10% FBS (SIGMA-ALDRICH) and Penicillin-Streptomycin mixed solution (Nacalai Tesque).
(§1) 2×10^4 Raw264.7 cells were seeded on a plate, and were then treated with IRF-PIPA 1, IRF-PIPA 2, IRF-PIPA 3 or IRF-PIPA 4 for 24 hours. Thereafter, the cells were stimulated with LPS (Lipopolysaccharide, SIGMA-ALDRICH) for 16 hours, and the culture supernatant was then recovered. The concentration of cytokine in the culture supernatant was measured using ELISA kit (R&D SYSTEMS) according to the standard protocols. The culture supernatant was diluted with 1% BSA-PBS, as necessary, and was then analyzed. 2.5×10^5 Mouse peritoneal macrophages were seeded on a plate, and were then treated with IRF-PIPA 3 for 16 or 24 hours. Thereafter, the cells were stimulated with Poly(I:C) (InvivoGen) for 16 hours or with mRNA vaccine (Moderna) for 20 to 24 hours, and the culture supernatant was then recovered. The concentration of cytokine in the culture supernatant was measured using ELISA kit (R&D SYSTEMS) according to the same standard protocols. On the other hand, the concentration of cytokine in mouse plasma was measured by administering 400 μg/mouse IRF-PIPA 3 into the abdominal cavity of wild-type mice, then administering 250 μg of Poly(I:C) into the same abdominal cavity 24 hours after the IRF-PIPA 3 administration, then collecting blood further 2 hours after the Poly(I:C) administration, and then measuring the cytokine concentration in the plasma using ELISA kit (R&D SYSTEMS) according to standard protocols.

IFN-β, IL-6 and TNF-α [1] = test: Cytokine concentration in culture supernatant of Poly(I:C)-stimulated peritoneal macrophages (ELISA); type: cell-based, mice; details: 3 or 10 μM 24 h, Poly(I:C) 1 μg/mL 16 h
Description: Peritoneal macrophages were harvested from wild-type mice, and were then seeded on a 96-well plate at a cell density of 2.5×10^5 cells/well, followed by culturing for 2 hours. Thereafter, the cultured cells were washed twice with PBS. Subsequently, IRF-PIPA 3 was suspended in 10% FBS-RPMI or D-MEM to a final concentration of 3 or 10 µM, and was then added to the wells. After completion of the culture for 24 hours, Poly(I:C) was added to the cultured cells to a final concentration of 1 μg/mL, and the obtained mixture was then cultured for 16 hours. The supernatant was recovered, and the concentrations of IFN-β, IL-6, and TNF-α were then measured by ELISA.
Mouse peritoneal macrophages were harvested from 6-week-old CL57B/6 mice (CLEA Japan, Inc.) by peritoneal lavage using 7 mL of PBS (Nacalai Tesque), and the cells adhered to the culture plate by culture for 2 hours were used in experiments. The culture was carried out using an RPMI or D-MEM medium (Nacalai Tesque) containing 10% FBS (SIGMA-ALDRICH) and Penicillin-Streptomycin mixed solution (Nacalai Tesque). The CL57B/6 mice were bred in an SPF environment.
as §1, with “Thereafter, the cells were stimulated with LPS (Lipopolysaccharide, SIGMA-ALDRICH) for 16 hours, and the culture supernatant was then recovered.” left out, “2.5×10^5 Mouse peritoneal macrophages were seeded on a plate, and were then treated with IRF-PIPA 3 for 16 or 24 hours. Thereafter, the cells were stimulated with Poly(I:C) (InvivoGen) for 16 hours or with mRNA vaccine (Moderna) for 20 to 24 hours, and the culture supernatant was then recovered.” left out

[2] = biological target: DNA sequence (GAAAGTG C GAAAGTG C GAAAGTG C: SEQ ID No: 28); test: Binding to target DNA sequence, Octet K2; details: Octet K2, 10 to 320 nM, binding and dissociation 60 seconds each, biotin-labeled target sequence
Description: In order to verify the cytotoxic activity of IRF-PIPA 3, dsDNA concentration (left view in the figure) and LDH concentration (right view in the figure) in the culture supernatant were measured. The same experiment as that in FIG. 2 was carried out, and the culture supernatant was recovered. A lysate obtained by mixing 2.5×10^5 peritoneal macrophages with 90 μL of 10% FBS-RPMI or D-MEM medium and 10 μL of Lysis Buffer, and then disrupting the cells, was used as a positive control. […] Using Octet K2, the binding of each concentration of IRF-PIPA 3 shown in the figure and a target DNA sequence was analyzed. After mixing a PIPA solution with target DNA, the binding of the two substances was measured for 60 seconds. […] From changes in the binding and dissociation at each concentration over time, a Kd value was calculated as a dissociation constant indicating a binding force. The analysis was performed using Octet K2 (ForteBio) according to standard protocols. A streptavidin-conjugated sensor (ForteBio) was used, and a biotin-labeled target sequence (FASMAC) was allowed to bind to the sensor. Further, according to standard protocols, the binding of 10 to 320 nM IRF-PIPA 3 and the target sequence, and dissociation thereof were analyzed for 60 seconds each.

[3] = system: Ifnb1, Il6, and Tnf genes; test: In vivo relative mRNA expression in peritoneal macrophages after Poly(I:C) (qRT-PCR); set-up: species or system mice; details: 400 μg/mouse i.p., Poly(I:C) 250 μg/mouse i.p. 3 h later, peritoneal macrophages 2 h later
Description: IRF-PIPA 3 was administered into the abdominal cavity of wild-type mice in an amount of 400 μg/mouse, and 3 hours after the administration, 250 μg/mouse Poly(I:C) was also administered into the abdominal cavity. Two hours after the administration of Poly(I:C), peritoneal macrophages were recovered, and the relative expression levels of Ifnb1, Il6, and Tnf genes were then analyzed by qRT-PCR.

IFN-β, IL-6 and TNF-α [4] = test: In vivo cytokine protein concentration in plasma after Poly(I:C) (ELISA); set-up: species or system mice
Description: […] Two hours after the administration of Poly(I:C), blood was collected, and individual protein concentrations of IFN-β, IL-6 and TNF-α in the plasma were then measured by an ELISA method.
as §1

RBD = RBD concentration in plasma after mRNA vaccine plus Poly(I:C) (ELISA); type: in vivo, mice; details: 400 μg/mouse i.m. or i.p., 24 h later mRNA vaccine 1 μg/mouse i.m. plus Poly(I:C) 250 μg/mouse, blood one day later
[5] = 400 μg/mouse i.p., Poly(I:C) 250 μg/mouse i.p. 24 hours, 1, 4 or 7 days later, blood 2 h later
[6] = plasma IFN-β, IL-6, TNF-α, Poly(I:C) 1, 4 or 7 days after IRF-PIPA 3

CC(=O)Nc1cn(C)c(C(=O)Nc2cc(C(=O)NCCC(=O)Nc3cc(C(=O)Nc4cn(C)c(C(=O)NCCC(=O)Nc5cn(C)c(C(=O)NCCCC(=O)Nc6cc(C(=O)Nc7cc(C(=O)Nc8cc(C(=O)NCCC(=O)Nc9cc(C(=O)Nc%10cc(C(=O)NCCC(=O)NCCCN(C)C)n(C)c%10)n(C)c9)n(C)c8)n(C)c7)n(C)c6)n5)n4)n(C)c3)n(C)c2)n1 [IRF-PIPA 3]
concentration dependence of suppression of IFN-β production (IFN-β): concentration-dependent suppression was observed | suppression of IFN-β production (IFN-β; ELISA of supernatant): strongest suppressive action among the 4 PIPAs | suppression of IFN-β production (IFN-β, IL-6 and TNF-α [1]): strongly suppresses IFN-β production in a concentration-dependent manner | suppression of IL-6 (IFN-β, IL-6 and TNF-α [1]): suppressed, although less strongly than IFN-β | suppression of TNF-α (IFN-β, IL-6 and TNF-α [1]): suppressed, although less strongly than IFN-β | Kd [2]: 22.7 nM | expression level of Ifnb1 mRNA in vivo [3]: significantly suppressed | expression level of Il6 mRNA in vivo [3]: significantly suppressed | expression level of Tnf mRNA in vivo [3]: significantly suppressed | IFN-β protein concentration in plasma (IFN-β, IL-6 and TNF-α [4]; [5]): significantly suppressed | IL-6 protein concentration in plasma (IFN-β, IL-6 and TNF-α [4]; [5]): significantly suppressed | TNF-α protein concentration in plasma (IFN-β, IL-6 and TNF-α [4]; [5]): significantly suppressed | time after administration of highest suppressive effect (IFN-β, IL-6 and TNF-α [4]; [6]): 1 days | time after administration until which the suppressive effect was sustained (attenuated) (IFN-β, IL-6 and TNF-α [4]; [6]): ≥ 7 days | concentration of the RBD protein in plasma (RBD): a decrease in the concentration of the RBD protein caused by Poly(I: C) was suppressed
